PubChem BioAssay AID1259411 (Chemical Carcinogenesis Research Information System (CCRIS), 2018)
Active and inactive are the calls of the source. The rule behind the calls is not given here.

System: rodent carcinogenicity bioassays, tumor incidence
Experiment: CCRIS carcinogenicity studies
Summary of the method: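 NCI-built, expert-reviewed records of carcinogenicity and related test outcomes (mutagenicity, tumor promotion/inhibition) compiled from published and report sources, historical span 1985-2011, not updated.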

Measured: carcinogen call

CCOC(N)=O
active: Species: MOUSE, Strain/Sex: ICR/FEMALE, Route: INHALATION, Dose: 0, 0.25 UG/ML AIR FOR 5 D (TOTAL DOSE 1.25 UG/ML/D) (STUDY DURATION: 5 MO), Tumor Site: Type of Lesion: LUNG: TUMOR, HEMATOPOIETIC SYSTEM: LEUKEMIA active; positive | Species: MOUSE, Strain/Sex: ICR/FEMALE, Route: INHALATION, Dose: 0, 0.25 UG/ML AIR FOR 10 D (TOTAL DOSE 2.5 UG/ML/D) (STUDY DURATION: 5 MO), Tumor Site: Type of Lesion: LUNG: TUMOR active; positive | Species: MOUSE, Strain/Sex: ICR/FEMALE, Route: INHALATION, Dose: 0, 1.29 UG/ML AIR FOR 0.25 D (TOTAL DOSE 0.32 UG/ML/D) (STUDY DURATION: 5 MO), Tumor Site: Type of Lesion: LUNG: TUMOR, HEMATOPOIETIC SYSTEM: LEUKEMIA active; positive | Species: MOUSE, Strain/Sex: ICR/FEMALE, Route: INHALATION, Dose: 0, 1.29 UG/ML AIR FOR 1 D (TOTAL DOSE 1.29 UG/ML/D) (STUDY DURATION; 5 MO), Dose: 0, 1.29 UG/ML AIR FOR 1 D (TOTAL DOSE 1.29 UG/ML/D) (STUDY DURATION; 5 MO), Tumor Site: Type of Lesion: LUNG: TUMOR, HEMATOPOIETIC SYSTEM: LEUKEMIA active; positive | Species: MOUSE, Strain/Sex: ICR/FEMALE, Route: INHALATION, Dose: 0, 1.29 UG/ML AIR FOR 2 D (TOTAL DOSE 2.58 UG/ML/D) (STUDY DURATION: 5 MO), Tumor Site: Type of Lesion: LUNG: TUMOR, HEMATOPOIETIC SYSTEM: LEUKEMIA active; positive | Species: MOUSE, Strain/Sex: ICR/FEMALE, Route: INHALATION, Dose: 0, 1.29 UG/ML AIR FOR 4 D (TOTAL DOSE 5.16 UG/ML/D) (STUDY DURATION: 5 MO), Tumor Site: Type of Lesion: LUNG: TUMOR, HEMATOPOIETIC SYSTEM: LEUKEMIA active; positive | Species: MOUSE, Strain/Sex: ICR/FEMALE, Route: INHALATION, Dose: 0, 1.29 UG/ML AIR FOR 5 D (TOTAL DOSE 6.45 UG/ML/D) (STUDY DURATION: 5 MO), Tumor Site: Type of Lesion: LUNG: TUMOR, HEMATOPOIETIC SYSTEM: LEUKEMIA active; positive | Species: MOUSE, Strain/Sex: ICR/MALE, Route: INHALATION, Dose: 0, 0.25 UG/ML AIR FOR 10 D (TOTAL DOSE 2.5 UG/ML/D) (STUDY DURATION: 12 MO), Tumor Site: Type of Lesion: LUNG: ADENOCARCINOMA, HEMATOPOIETIC SYSTEM: LEUKEMIA, LIVER: HEPATOMA, Tumor Site: Type of Lesion: LUNG: ADENOCARCINOMA, HEMATOPOIETIC SYSTEM: LEUKEMIA, LIVER: HEPATOMA active; positive | Species: MOUSE, Strain/Sex: ICR/MALE, Route: INHALATION, Dose: 0, 1.29 UG/ML AIR FOR 4 D (TOTAL DOSE 5.16 UG/ML/D) (STUDY DURATION: 12 MO), Tumor Site: Type of Lesion: LUNG: ADENOCARCINOMA, HEMATOPOIETIC SYSTEM: LEUKEMIA, LIVER: HEPATOMA, Tumor Site: Type of Lesion: LUNG: ADENOCARCINOMA, HEMATOPOIETIC SYSTEM: LEUKEMIA, LIVER: HEPATOMA active; positive | Species: MOUSE, Strain/Sex: STRAIN-A/MALE, Route: INTRAPERITONEAL, Dose: 0, 1.12, 4.6 MMOL/KG IN ISOTONIC SALINE ONCE AT 6 WK OF AGE (STUDY DURATION: 16 WK), Dose: 0, 1.12, 4.6 MMOL/KG IN ISOTONIC SALINE ONCE AT 6 WK OF AGE (STUDY DURATION: 16 WK), Tumor Site: Type of Lesion: LUNG: ADENOMA active; positive | Species: MOUSE, Strain/Sex: SWISS WEBSTER/FEMALE, Route: INTRAVENOUS, Dose: 0, 3.3 MMOL ONCE ADMINISTERED TO VIRGIN FEMALES AT 12 WK OF AGE (STUDY DURATION: 6 MO), Tumor Site: Type of Lesion: LUNG: ADENOMA active; positive | Species: MOUSE, Strain/Sex: SWISS WEBSTER/FEMALE, Route: INTRAVENOUS, Dose: 0, 3.3 MMOL/KG ONCE ADMINISTERED TO MOTHERS ON GESTATIONAL DAY 14 (STUDY DURATION: 6 MO), Tumor Site: Type of Lesion: LUNG: ADENOMA active; positive | Species: MOUSE, Strain/Sex: SWISS WEBSTER/FEMALE, Route: TRANSPLACENTAL, Dose: 0, 3.3 MMOL/KG ONCE BY INTRAVENOUS ADMINISTRATION TO MOTHERS ON GESTATIONAL DAY 14 (STUDY DURATION: 6 MO), Tumor Site: Type of Lesion: LUNG: ADENOMA active; positive | Species: MOUSE, Strain/Sex: SWISS WEBSTER/MALE, Route: TRANSPLACENTAL, Dose: 0, 3.3 MMOL/KG ONCE BY INTRAVENOUS ADMINISTRATION TO MOTHERS ON GESTATIONAL DAY 14 (STUDY DURATION: 6 Mo), Tumor Site: Type of Lesion: LUNG: ADENOMA active; positive | Species: MOUSE, Strain/Sex: SWISS/MALE,FEMALE, Route: ORAL, Dose: 0, 0.4% IN DRINKING WATER, 2 10-D TREATMENTS, Dose: 0, 0.4% IN DRINKING WATER, 2 10-D TREATMENTS, Tumor Site: Type of Lesion: LUNG: ADENOMA, LYMPHOMA, LIVER: HEMANGIOMA, INTEGUMENTARY SYSTEM (SKIN): PAPILLOMA, SEBACEOUS CARCINOMA, Tumor Site: Type of Lesion: LUNG: ADENOMA, LYMPHOMA, LIVER: HEMANGIOMA, INTEGUMENTARY SYSTEM (SKIN): PAPILLOMA, SEBACEOUS CARCINOMA active; positive | Species: RAT, Route: INTRAPERITONEAL, ORAL, Tumor Site: Type of Lesion: LIVER active; positive | Species: RAT, Route: INTRAPERITONEAL, Tumor Site: Type of Lesion: LIVER, NERVOUS SYSTEM active; positive | Species: RAT, Route: SUBCUTANEOUS, Tumor Site: Type of Lesion: EYE (IRIS) active; positive
inactive: Species: Mouse, Strain/Sex: 129 x MF1 Gstp-null (12-16 males and females), Route: Intraperitoneal, Dose: 10 mg/kg, once, study duration 5 mo, Tumor Site: Type of Lesion: Lung: adenoma (incidence 92% vs 27% in controls, multiplicity 3.8 vs 0.3 in controls) inactive; negative | Species: Mouse, Strain/Sex: 129 x MF1 wild type (14-16 males and females), Route: Intraperitoneal, Dose: 10 mg/kg, once, study duration 5 mo, Tumor Site: Type of Lesion: Lung: adenoma (incidence 29% vs 25% in controls, multiplicity 0.4 vs 0.3 in controls) inactive; negative
